Test results from patent publication US10308667B2, “Oxadiazolopyridine derivatives for use as ghrelin O-acyl transferase (GOAT) inhibitors” (Boehringer Ingelheim International GmbH, priority 2016, dated 2019).

molecular target: human GOAT (Homo sapiens (Human), UniProt Q96T53); test: Determination of hGOAT Activity in HEK293 Cells after Incubation with Test Compound; type: cell-based; conditions: HEK293 cells stably transfected with preproghrelin and human GOAT; octanoate-BSA 100 μM; acyl-ghrelin in medium by ELISA after 5 hours
Summary of the method: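 HEK293 cells stably expressing preproghrelin and human GOAT were given serum-free medium with 100 μM octanoate-BSA plus compound (0.3% DMSO) for 5 h. Acyl-ghrelin in the medium was quantified by ELISA (A405, standard curve) as % of vehicle. IC50 was fitted from 8 concentrations.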

Chain of human GOAT (Q96T53 whole entry): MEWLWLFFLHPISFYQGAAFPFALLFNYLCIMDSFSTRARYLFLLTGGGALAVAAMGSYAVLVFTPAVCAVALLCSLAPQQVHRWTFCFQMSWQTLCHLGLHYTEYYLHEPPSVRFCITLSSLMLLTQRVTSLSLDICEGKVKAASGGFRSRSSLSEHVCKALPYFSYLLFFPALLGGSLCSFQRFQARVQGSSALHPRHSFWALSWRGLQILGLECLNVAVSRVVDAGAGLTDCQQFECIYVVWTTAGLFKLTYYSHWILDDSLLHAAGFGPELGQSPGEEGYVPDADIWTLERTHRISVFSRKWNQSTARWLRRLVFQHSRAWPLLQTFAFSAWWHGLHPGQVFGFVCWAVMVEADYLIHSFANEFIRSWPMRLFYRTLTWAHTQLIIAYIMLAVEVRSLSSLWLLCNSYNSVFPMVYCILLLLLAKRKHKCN

Structure (SMILES) | IC50
Cc1nc2nonc2c(N)c1Cc1ccc(C#N)c(NCCC(F)F)n1 [Example 144, 6-(7-Amino-5-methyl-[1,2,5]oxadiazolo[3,4-b]pyridin-6-ylmethyl)-2-(3,3-difluoro-propylamino)-nicotinonitrile] | 0.055 nM
Cc1nc2nonc2c(N)c1Cc1ccc(C#N)c(NCC(C)(C)C#N)n1 [Example 146, 6-(7-Amino-5-methyl-[1,2,5]oxadiazolo[3,4-b]pyridin-6-ylmethyl)-2-(2-cyano-2,2-dimethyl-ethylamino)-nicotinonitrile] | 1.1 nM
Cc1nc2nonc2c(N)c1Cc1ccc(N2CCC(F)(F)C2)c(C#N)n1 [Example 150, 6-(7-Amino-5-methyl-[1,2,5]oxadiazolo[3,4-b]pyridin-6-ylmethyl)-3-(3,3-difluoro-pyrrolidin-1-yl)-pyridine-2-carbonitrile] | 2.3 nM
Cc1nc2nonc2c(N)c1Cc1ccc(N2CCOCC2)c(C#N)n1 [Example 152, 6-(7-Amino-5-methyl-[1,2,5]oxadiazolo[3,4-b]pyridin-6-ylmethyl)-3-morpholin-4-yl-pyridine-2-carbonitrile] | 0.6 nM
Cc1nc2nonc2c(N)c1Cc1ccc(NCC(F)F)c(C#N)n1 [Example 154, 6-(7-Amino-5-methyl-[1,2,5]oxadiazolo[3,4-b]pyridin-6-ylmethyl)-3-(2,2-difluoro-ethylamino)-pyridine-2-carbonitrile] | 0.17 nM
Cc1nc2nonc2c(N)c1Cc1ccc(-n2cccn2)c(C#N)n1 [Example 157, 6-(7-Amino-5-methyl-[1,2,5]oxadiazolo[3,4-b]pyridin-6-ylmethyl)-3-pyrazol-1-yl-pyridine-2-carbonitrile] | 0.26 nM
Cc1nc2nonc2c(N)c1Cc1ccc(C#N)c(C#N)n1 [Example 158, 6-(7-Amino-5-methyl-[1,2,5]oxadiazolo[3,4-b]pyridin-6-ylmethyl)-pyridine-2,3-dicarbonitrile] | 1.7 nM
Cc1nc2nonc2c(N)c1Cc1ccc(S(C)(=O)=O)c(S(C)(=O)=O)n1 [Example 160, 6-(5,6-Bis-methanesulfonyl-pyridin-2-ylmethyl)-5-methyl-[1,2,5]oxadiazolo[3,4-b]pyridin-7-ylamine] | 3 nM
Cc1nc2nonc2c(N)c1Cc1ccc(Br)c(S(C)(=O)=O)n1 [Example 161, 6-(5-Bromo-6-methanesulfonyl-pyridin-2-ylmethyl)-5-methyl-[1,2,5]oxadiazolo[3,4-b]pyridin-7-ylamine] | 0.89 nM
Cc1nc2nonc2c(N)c1Cc1ccc(C#N)c(S(C)(=O)=O)n1 [Example 162, 6-(7-Amino-5-methyl-[1,2,5]oxadiazolo[3,4-b]pyridin-6-ylmethyl)-2-methanesulfonyl-nicotinonitrile] | 4.6 nM
Cc1nc2nonc2c(N)c1Cc1ccc(Br)c(=O)[nH]1 [Example 163, 6-(7-Amino-5-methyl-[1,2,5]oxadiazolo[3,4-b]pyridin-6-ylmethyl)-3-bromo-1H-pyridin-2-one] | 2.5 nM
Cc1nc2nonc2c(N)c1Cc1cccc(C#N)n1 [Example 164, 6-(7-Amino-5-methyl-[1,2,5]oxadiazolo[3,4-b]pyridin-6-ylmethyl)-pyridine-2-carbonitrile] | 7.4 nM

More lines, now with the values ahead:

IC50 | Structure (SMILES)
0.046 nM | Cc1nc2nonc2c(N)c1Cc1ccc(C#N)c(N2CCC(F)(F)C2)n1 [Example 143, 6-(7-Amino-5-methyl-[1,2,5]oxadiazolo[3,4-b]pyridin-6-ylmethyl)-2-(3,3-difluoro-pyrrolidin-1-yl)-nicotinonitrile]
0.32 nM | Cc1nc2nonc2c(N)c1Cc1ccc(C#N)c(NCCC(F)(F)F)n1 [Example 145, 6-(7-Amino-5-methyl-[1,2,5]oxadiazolo[3,4-b]pyridin-6-ylmethyl)-2-(3,3,3-trifluoro-propylamino)-nicotinonitrile]
0.25 nM | Cc1nc2nonc2c(N)c1Cc1ccc(C#N)c(NCC2(C)CCOC2)n1 (stereo not shown) [Example 147, 6-(7-Amino-5-methyl-[1,2,5]oxadiazolo[3,4-b]pyridin-6-ylmethyl)-2-[(3-methyl-tetrahydro-furan-3-ylmethyl)-amino]-nicotinonitrile]
0.15 nM | Cc1nc2nonc2c(N)c1Cc1ccc(C#N)c(NCC(C)(C)C(N)=O)n1 [Example 148, 3-[6-(7-Amino-5-methyl-[1,2,5]oxadiazolo[3,4-b]pyridin-6-ylmethyl)-3-cyano-pyridin-2-ylamino]-2,2-dimethyl-propionamide]
0.027 nM | Cc1nc2nonc2c(N)c1Cc1ccc(C#N)c(NCCCF)n1 [Example 149, 6-(7-Amino-5-methyl-[1,2,5]oxadiazolo[3,4-b]pyridin-6-ylmethyl)-2-(3-fluoro-propylamino)-nicotinonitrile]
1.8 nM | Cc1nc2nonc2c(N)c1Cc1ccc(N2CC(F)(F)C2)c(C#N)n1 [Example 151, 6-(7-Amino-5-methyl-[1,2,5]oxadiazolo[3,4-b]pyridin-6-ylmethyl)-3-(3,3-difluoro-azetidin-1-yl)-pyridine-2-carbonitrile]
0.56 nM | Cc1nc2nonc2c(N)c1Cc1ccc(NCCF)c(C#N)n1 [Example 153, 6-(7-Amino-5-methyl-[1,2,5]oxadiazolo[3,4-b]pyridin-6-ylmethyl)-3-(2-fluoro-ethylamino)-pyridine-2-carbonitrile]
1.2 nM | Cc1nc2nonc2c(N)c1Cc1ccc(-n2cc(F)cn2)c(C#N)n1 [Example 155, 6-(7-Amino-5-methyl-[1,2,5]oxadiazolo[3,4-b]pyridin-6-ylmethyl)-3-(4-fluoro-pyrazol-1-yl)-pyridine-2-carbonitrile]
3.5 nM | Cc1nc2nonc2c(N)c1Cc1ccc(-n2ccc(C(F)(F)F)n2)c(C#N)n1 [Example 156, 6-(7-Amino-5-methyl-[1,2,5]oxadiazolo[3,4-b]pyridin-6-ylmethyl)-3-(3-trifluoromethyl-pyrazol-1-yl)-pyridine-2-carbonitrile]
15 nM | Cc1nc2nonc2c(N)c1Cc1ccc(S(C)(=O)=O)c(O)n1 [Example 159, 6-(7-Amino-5-methyl-[1,2,5]oxadiazolo[3,4-b]pyridin-6-ylmethyl)-3-methanesulfonyl-pyridin-2-ol]
14 nM | Cc1nc2nonc2c(N)c1Cc1nc(C#N)cc(C(F)F)n1 [Example 165, 2-(7-amino-5-methyl-[1,2,5]oxadiazolo[3,4-b]pyridin-6-ylmethyl)-6-(difluoromethyl)pyrimidine-4-carbonitrile]
0.38 nM | Cc1nc2nonc2c(N)c1Cc1ncc(Cl)c(C(F)F)n1 [Example 166, 6-[5-chloro-4-(difluoromethyl)pyrimidin-2-yl]methyl-5-methyl-[1,2,5]oxadiazolo[3,4-b]pyridin-7-amine]
0.82 nM | Cc1nc2nonc2c(N)c1Cc1nc(C(F)F)c(Cl)c(C(F)F)n1 [Example 167, 6-[5-chloro-4,6-bis(difluoromethyl)pyrimidin-2-yl]methyl-5-methyl-[1,2,5]oxadiazolo[3,4-b]pyridin-7-amine]
